Calls of active or inactive are those of the source. The rule behind the calls is not given here.
What was measured:
[1] = molecular target: T1, Serine/threonine-protein kinase PLK3 (Homo sapiens, UniProt Q9H4B4); assay: Inhibition of human PLK3 in presence of 75 uM ATP
[2] = system: Mus musculus; assay: Acute toxicity in CD1 mouse assessed as myeloid or lymphoid hyperplasia in bone marrow at 80 mg/kg, ip after 7 days; assay type: organism-based; design: dose 80 mg/kg, route intraperitoneal; settings: in vivo, 168 h
[3] = system: Mus musculus; assay: Anti-breast cancer activity in ip dosed MMTV/Neu transgenic mouse assessed as tumor progression delay; assay type: functional, organism-based
[4] = system: Mus musculus; assay: Effect on non-proliferating tissue in po dosed BALB/c mouse assessed as toxic lesions in kidney; assay type: ADME, organism-based; settings: in vivo
[5] = organism: Danio rerio; assay: Effect on cell division blockade in zebrafish egg assessed as cell fusion and lysis at 500 uM after 60 mins; assay type: functional, organism-based
[6] = system: Mus musculus; assay: Acute toxicity in CD1 mouse assessed as absolute neutrophil counts at 10 mg/kg, ip after 7 days; assay type: organism-based; design: dose 10 mg/kg, route intraperitoneal; settings: in vivo, 168 h
[7] = system: Mus musculus; assay: Subacute toxicity in CD1 mouse assessed as absolute lymphocyte counts at 40 mg/kg, ip after 30 days; assay type: organism-based; design: dose 40 mg/kg, route intraperitoneal; settings: in vivo, 720 h
[8] = molecular target: Mitogen-activated protein kinase 14 (Homo sapiens, UniProt Q16539); assay: Inhibition of SAPK2a
Mitogen-activated protein kinase 14, sequence (Q16539 whole entry): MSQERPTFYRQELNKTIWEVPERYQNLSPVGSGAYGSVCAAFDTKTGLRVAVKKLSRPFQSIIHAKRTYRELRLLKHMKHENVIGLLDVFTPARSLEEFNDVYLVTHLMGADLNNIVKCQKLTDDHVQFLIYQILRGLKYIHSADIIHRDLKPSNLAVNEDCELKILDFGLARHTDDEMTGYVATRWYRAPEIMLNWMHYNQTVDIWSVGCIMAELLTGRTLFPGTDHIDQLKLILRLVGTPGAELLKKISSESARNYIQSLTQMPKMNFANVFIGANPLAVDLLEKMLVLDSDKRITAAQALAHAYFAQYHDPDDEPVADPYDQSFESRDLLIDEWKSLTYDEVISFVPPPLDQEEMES

[9] = system: Mus musculus; assay: Toxicity in cumulative po dosed BALB/c mouse; assay type: organism-based; settings: in vivo
[10] = molecular target: Serine/threonine-protein kinase PLK1 (Xenopus laevis, UniProt P70032); assay: Inhibition of Xenopus recombinant Plx1 expressed in Sf21 cells by GST-Cdc25 substrate phosphorylation assay; assay type: functional
Serine/threonine-protein kinase PLK1, sequence (P70032 whole entry): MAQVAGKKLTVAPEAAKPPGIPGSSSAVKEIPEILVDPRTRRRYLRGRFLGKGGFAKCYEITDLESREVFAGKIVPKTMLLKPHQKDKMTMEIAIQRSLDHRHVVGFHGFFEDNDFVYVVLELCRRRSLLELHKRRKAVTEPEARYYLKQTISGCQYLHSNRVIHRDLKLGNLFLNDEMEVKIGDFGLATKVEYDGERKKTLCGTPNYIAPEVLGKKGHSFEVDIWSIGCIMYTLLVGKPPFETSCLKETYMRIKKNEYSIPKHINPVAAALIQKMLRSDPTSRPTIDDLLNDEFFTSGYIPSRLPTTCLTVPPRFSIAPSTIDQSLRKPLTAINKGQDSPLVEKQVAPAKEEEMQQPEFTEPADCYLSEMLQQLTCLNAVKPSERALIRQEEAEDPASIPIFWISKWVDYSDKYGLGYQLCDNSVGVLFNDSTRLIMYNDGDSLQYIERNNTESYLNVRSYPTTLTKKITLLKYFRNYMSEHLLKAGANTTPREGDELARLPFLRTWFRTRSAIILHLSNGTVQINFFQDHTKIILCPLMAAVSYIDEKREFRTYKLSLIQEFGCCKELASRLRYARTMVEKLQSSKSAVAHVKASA

[11] = system: Mus musculus; assay: Acute toxicity in CD1 mouse assessed as WBC counts at 80 mg/kg, ip after 7 days; assay type: organism-based; design: dose 80 mg/kg, route intraperitoneal; settings: in vivo, 168 h
[12] = system: Mus musculus; assay: Acute toxicity in CD1 mouse assessed as WBC counts at 20 mg/kg, ip after 7 days; assay type: organism-based; design: dose 20 mg/kg, route intraperitoneal; settings: in vivo, 168 h
[13] = molecular target: T1, Serine/threonine-protein kinase PLK3; assay: Inhibition of human PLK3
[14] = system: Mus musculus; assay: Effect on non-proliferating tissue in ip dosed CD1 mouse assessed as toxic lesions in lung; assay type: ADME, organism-based; settings: in vivo
[15] = system: Rattus norvegicus; assay: Toxicity in Lewis rat assessed as WBC counts at 80 mg/kg, iv after 7 days; assay type: organism-based; design: dose 80 mg/kg, route intravenous; settings: in vivo, 168 h
[16] = system: Mus musculus; assay: Subacute toxicity in CD1 mouse assessed as absolute neutrophil counts at 80 mg/kg, ip after 30 days; assay type: organism-based; design: dose 80 mg/kg, route intraperitoneal; settings: in vivo, 720 h
[17] = system: Mus musculus; assay: Acute toxicity in CD1 mouse assessed as absolute lymphocyte counts at 10 mg/kg, ip after 7 days; assay type: organism-based; design: dose 10 mg/kg, route intraperitoneal; settings: in vivo, 168 h
[18] = molecular target: Hepatocyte growth factor receptor (Homo sapiens, UniProt P08581); assay: Inhibition of Met kinase
Hepatocyte growth factor receptor, sequence (P08581 whole entry): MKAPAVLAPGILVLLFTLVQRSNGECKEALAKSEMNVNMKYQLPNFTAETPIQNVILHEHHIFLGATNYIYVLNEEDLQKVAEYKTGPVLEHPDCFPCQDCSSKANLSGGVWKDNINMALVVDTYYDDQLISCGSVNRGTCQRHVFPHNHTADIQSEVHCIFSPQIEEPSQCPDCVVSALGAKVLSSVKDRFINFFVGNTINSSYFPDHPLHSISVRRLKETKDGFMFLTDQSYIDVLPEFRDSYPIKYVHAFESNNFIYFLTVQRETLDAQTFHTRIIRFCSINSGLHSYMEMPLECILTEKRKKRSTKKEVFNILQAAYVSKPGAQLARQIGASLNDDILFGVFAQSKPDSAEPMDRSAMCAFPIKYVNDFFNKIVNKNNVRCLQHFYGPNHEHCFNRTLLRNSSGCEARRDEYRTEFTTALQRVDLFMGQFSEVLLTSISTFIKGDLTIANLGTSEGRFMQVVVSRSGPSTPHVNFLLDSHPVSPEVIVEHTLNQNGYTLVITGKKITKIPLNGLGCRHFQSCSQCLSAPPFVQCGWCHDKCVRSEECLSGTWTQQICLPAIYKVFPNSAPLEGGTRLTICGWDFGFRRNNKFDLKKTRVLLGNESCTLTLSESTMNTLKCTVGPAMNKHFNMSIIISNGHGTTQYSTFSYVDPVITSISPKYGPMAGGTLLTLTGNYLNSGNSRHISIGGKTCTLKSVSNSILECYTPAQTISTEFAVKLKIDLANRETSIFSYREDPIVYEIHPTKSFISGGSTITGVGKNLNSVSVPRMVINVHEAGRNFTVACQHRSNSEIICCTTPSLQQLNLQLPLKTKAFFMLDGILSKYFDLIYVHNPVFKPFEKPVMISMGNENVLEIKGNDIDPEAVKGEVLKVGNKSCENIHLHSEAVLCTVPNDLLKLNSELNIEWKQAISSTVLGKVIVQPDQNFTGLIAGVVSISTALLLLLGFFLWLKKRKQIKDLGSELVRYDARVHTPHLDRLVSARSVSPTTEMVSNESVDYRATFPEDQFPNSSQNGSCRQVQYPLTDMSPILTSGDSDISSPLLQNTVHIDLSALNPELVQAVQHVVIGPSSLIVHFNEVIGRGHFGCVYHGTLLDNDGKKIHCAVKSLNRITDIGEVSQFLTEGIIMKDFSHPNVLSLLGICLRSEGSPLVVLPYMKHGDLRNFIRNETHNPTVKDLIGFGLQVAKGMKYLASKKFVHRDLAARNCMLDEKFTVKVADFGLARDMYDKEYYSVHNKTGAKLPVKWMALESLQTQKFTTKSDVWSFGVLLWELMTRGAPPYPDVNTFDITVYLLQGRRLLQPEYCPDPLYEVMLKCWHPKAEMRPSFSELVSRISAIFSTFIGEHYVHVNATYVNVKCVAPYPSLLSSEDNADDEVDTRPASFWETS

[19] = molecular target: Inhibitor of NF-kappa-B kinase (IKK) (Homo sapiens, UniProt O14920+O15111+Q9Y6K9); assay: Inhibition of IKK; assay type: protein-complex assay
Inhibitor of NF-kappa-B kinase (IKK), sequence (O14920 whole entry): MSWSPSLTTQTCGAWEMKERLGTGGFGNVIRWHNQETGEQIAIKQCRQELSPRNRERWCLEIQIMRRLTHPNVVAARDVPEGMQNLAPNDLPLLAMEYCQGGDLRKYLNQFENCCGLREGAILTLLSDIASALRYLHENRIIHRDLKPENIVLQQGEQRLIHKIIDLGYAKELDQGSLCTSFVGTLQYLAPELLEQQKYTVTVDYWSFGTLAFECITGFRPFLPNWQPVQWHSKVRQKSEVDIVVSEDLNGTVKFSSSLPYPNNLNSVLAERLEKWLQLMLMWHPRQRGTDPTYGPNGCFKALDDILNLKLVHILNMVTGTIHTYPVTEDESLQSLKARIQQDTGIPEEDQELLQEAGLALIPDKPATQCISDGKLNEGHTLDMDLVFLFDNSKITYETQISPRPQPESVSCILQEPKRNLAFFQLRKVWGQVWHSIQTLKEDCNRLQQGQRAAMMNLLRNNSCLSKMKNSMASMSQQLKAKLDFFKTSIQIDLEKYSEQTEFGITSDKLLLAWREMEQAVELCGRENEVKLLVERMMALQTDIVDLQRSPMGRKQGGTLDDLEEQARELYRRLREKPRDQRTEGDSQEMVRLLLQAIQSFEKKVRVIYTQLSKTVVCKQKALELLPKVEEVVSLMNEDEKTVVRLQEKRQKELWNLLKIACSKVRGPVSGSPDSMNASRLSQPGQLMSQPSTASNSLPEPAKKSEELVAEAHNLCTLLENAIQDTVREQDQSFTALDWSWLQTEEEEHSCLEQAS
Inhibitor of NF-kappa-B kinase (IKK), sequence (O15111 whole entry): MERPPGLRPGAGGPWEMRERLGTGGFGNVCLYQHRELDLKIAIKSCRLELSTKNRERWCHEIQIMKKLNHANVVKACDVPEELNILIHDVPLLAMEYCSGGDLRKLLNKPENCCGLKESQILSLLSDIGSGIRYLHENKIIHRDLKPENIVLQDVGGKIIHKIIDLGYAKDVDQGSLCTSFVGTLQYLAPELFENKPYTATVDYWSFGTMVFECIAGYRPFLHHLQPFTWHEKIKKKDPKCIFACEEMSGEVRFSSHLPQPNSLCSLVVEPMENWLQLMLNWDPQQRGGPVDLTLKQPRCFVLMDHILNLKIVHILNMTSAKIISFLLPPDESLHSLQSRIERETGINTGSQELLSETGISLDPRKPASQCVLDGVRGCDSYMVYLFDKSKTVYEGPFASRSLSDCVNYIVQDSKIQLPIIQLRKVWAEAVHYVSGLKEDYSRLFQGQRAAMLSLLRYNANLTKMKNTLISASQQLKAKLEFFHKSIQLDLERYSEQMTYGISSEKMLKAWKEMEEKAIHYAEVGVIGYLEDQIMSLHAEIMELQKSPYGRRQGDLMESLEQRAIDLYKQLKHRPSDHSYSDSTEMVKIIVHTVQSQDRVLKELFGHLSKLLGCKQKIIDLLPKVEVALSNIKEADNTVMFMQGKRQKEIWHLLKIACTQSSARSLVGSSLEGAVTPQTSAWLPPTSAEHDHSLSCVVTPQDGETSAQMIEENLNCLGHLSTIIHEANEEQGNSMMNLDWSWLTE
Inhibitor of NF-kappa-B kinase (IKK), sequence (Q9Y6K9 whole entry): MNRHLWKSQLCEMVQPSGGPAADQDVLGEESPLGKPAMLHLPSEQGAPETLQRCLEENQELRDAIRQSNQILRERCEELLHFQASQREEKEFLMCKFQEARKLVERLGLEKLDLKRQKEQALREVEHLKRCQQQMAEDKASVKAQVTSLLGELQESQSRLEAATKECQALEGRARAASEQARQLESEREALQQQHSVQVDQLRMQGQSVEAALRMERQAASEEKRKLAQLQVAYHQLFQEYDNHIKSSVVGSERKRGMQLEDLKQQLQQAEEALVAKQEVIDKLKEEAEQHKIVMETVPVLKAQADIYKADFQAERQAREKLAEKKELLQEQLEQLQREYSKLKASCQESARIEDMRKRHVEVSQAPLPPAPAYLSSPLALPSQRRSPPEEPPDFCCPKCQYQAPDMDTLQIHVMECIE

[20] = molecular target: T1, Serine/threonine-protein kinase PLK3; assay: Inhibition of human PLK3 in presence of 100 uM ATP
[21] = system: Mus musculus; assay: Subacute toxicity in CD1 mouse assessed as absolute lymphocyte counts at 10 mg/kg, ip after 30 days; assay type: organism-based; design: dose 10 mg/kg, route intraperitoneal; settings: in vivo, 720 h
[22] = molecular target: Protein-tyrosine kinase 6 (Homo sapiens, UniProt Q13882); assay: Inhibition of BRK
[23] = system: Mus musculus; assay: Effect on non-proliferating tissue in ip dosed CD1 mouse assessed as toxic lesions in kidney; assay type: ADME, organism-based; settings: in vivo
[24] = system: Mus musculus; assay: Effect on non-proliferating tissue in ip dosed CD1 mouse assessed as toxic lesions in pancreas; assay type: ADME, organism-based; settings: in vivo
[25] = system: Rattus norvegicus; assay: Toxicity in iv dosed Lewis rat; assay type: organism-based; settings: in vivo
[26] = system: Mus musculus; assay: Subacute toxicity in CD1 mouse assessed as absolute lymphocyte counts at 80 mg/kg, ip after 30 days; assay type: organism-based; design: dose 80 mg/kg, route intraperitoneal; settings: in vivo, 720 h
[27] = system: Rattus norvegicus; assay: Effect on non-proliferating tissue in iv dosed Lewis rat assessed as toxic lesions in brain on day 7; assay type: ADME, organism-based; settings: in vivo
[28] = system: Mus musculus; assay: Effect on non-proliferating tissue in po dosed BALB/c mouse assessed as toxic lesions in lung; assay type: ADME, organism-based; settings: in vivo
[29] = system: Mus musculus; assay: Acute toxicity in CD1 mouse assessed as myeloid or lymphoid hyperplasia in bone marrow at 20 mg/kg, ip after 7 days; assay type: organism-based; design: dose 20 mg/kg, route intraperitoneal; settings: in vivo, 168 h
[30] = system: Mus musculus; assay: Effect on non-proliferating tissue in ip dosed CD1 mouse assessed as toxic lesions in brain; assay type: ADME, organism-based; settings: in vivo
[31] = molecular target: Phosphatidylinositol 4,5-bisphosphate 3-kinase catalytic subunit gamma isoform (Homo sapiens, UniProt P48736); assay: Inhibition of PI3Kgamma
[32] = system: Mus musculus; assay: Toxicity in ip dosed CD1 mouse; assay type: organism-based; settings: in vivo
[33] = system: Mus musculus; assay: Subacute toxicity in CD1 mouse assessed as myeloid or lymphoid hyperplasia in bone marrow at 20 mg/kg, ip after 30 days; assay type: organism-based; design: dose 20 mg/kg, route intraperitoneal; settings: in vivo, 720 h
[34] = molecular target: T1, Serine/threonine-protein kinase PLK3; assay: Inhibition of human PLK3 in presence of 200 uM ATP
[35] = system: Mus musculus; assay: Subacute toxicity in CD1 mouse assessed as absolute neutrophil counts at 40 mg/kg, ip after 30 days; assay type: organism-based; design: dose 40 mg/kg, route intraperitoneal; settings: in vivo, 720 h
[36] = molecular target: Insulin-like growth factor 1 receptor (Homo sapiens, UniProt P08069); assay: Inhibition of IGF1R
[37] = molecular target: Serine/threonine-protein kinase Chk1 (Homo sapiens, UniProt O14757); assay: Inhibition of CHK1
[38] = system: PTK1; assay: Antiproliferative activity against prometaphase PTK1 cells assessed as complete arrest at 1 mM within 50 mins; assay type: functional, cell-based; settings: Potorous tridactylus
[39] = system: Rattus norvegicus; assay: Effect on non-proliferating tissue in iv dosed Lewis rat assessed as toxic lesions in kidney on day 7; assay type: ADME, organism-based; settings: in vivo
[40] = system: Rattus norvegicus; assay: Toxicity in Lewis rat assessed as myeloid or lymphoid hyperplasia in bone marrow at 80 mg/kg, iV after 7 days; assay type: organism-based; design: dose 80 mg/kg, route intravenous; settings: in vivo, 168 h
[41] = system: Mus musculus; assay: Effect on non-proliferating tissue in po dosed BALB/c mouse assessed as toxic lesions in myocardium; assay type: ADME, organism-based; settings: in vivo
[42] = system: Mus musculus; assay: Subacute toxicity in CD1 mouse assessed as absolute lymphocyte counts at 20 mg/kg, ip after 30 days; assay type: organism-based; design: dose 20 mg/kg, route intraperitoneal; settings: in vivo, 720 h

T1 sequence (Q9H4B4 whole entry): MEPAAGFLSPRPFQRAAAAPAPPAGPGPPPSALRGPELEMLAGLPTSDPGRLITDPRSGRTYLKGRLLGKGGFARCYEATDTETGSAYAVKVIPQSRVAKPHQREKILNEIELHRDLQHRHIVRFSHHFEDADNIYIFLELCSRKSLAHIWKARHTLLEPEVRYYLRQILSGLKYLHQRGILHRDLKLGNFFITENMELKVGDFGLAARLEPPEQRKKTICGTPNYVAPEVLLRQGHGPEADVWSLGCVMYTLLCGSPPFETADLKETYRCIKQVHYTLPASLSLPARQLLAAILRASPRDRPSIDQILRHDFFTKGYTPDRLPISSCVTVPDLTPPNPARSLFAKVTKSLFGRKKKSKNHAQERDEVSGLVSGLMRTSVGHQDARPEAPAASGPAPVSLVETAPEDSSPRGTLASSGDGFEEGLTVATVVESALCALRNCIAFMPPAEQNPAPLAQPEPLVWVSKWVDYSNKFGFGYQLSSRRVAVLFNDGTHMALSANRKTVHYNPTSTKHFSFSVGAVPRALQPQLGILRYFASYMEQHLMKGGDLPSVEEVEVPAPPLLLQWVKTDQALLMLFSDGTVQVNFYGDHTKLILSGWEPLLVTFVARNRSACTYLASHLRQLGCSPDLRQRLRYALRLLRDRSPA

C/C(O)=C(\C#N)C(=O)Nc1cc(Br)ccc1Br
IC50 [1]: 120 µM
Activity [2]: Non-toxic
Activity [3]: Dose-dependent effect
Activity [4]: Non-toxic
Activity [5]: Active
Activity [6]: 1.3 10^9/L
Activity [7]: 5.1 10^9/L
IC50 [8]: > 500 µM
LD10 [9]: > 11200 mg/kg
IC50 [10]: 32.5 µM
Activity [11]: 6.6 10^9/L
Activity [12]: 7.6 10^9/L
IC50 [13]: 61 µM
Activity [14]: Non-toxic
Activity [15]: 11.7 10^9/L
Activity [16]: 1.7 10^9/L
Activity [17]: 5.4 10^9/L
IC50 [18]: 215 µM
IC50 [19]: > 500 µM
IC50 [20]: 125 µM
Activity [21]: 4.4 10^9/L
IC50 [22]: 267 µM
Activity [23]: Non-toxic
Activity [24]: Non-toxic
LD10 [25]: > 80 mg/kg
Activity [26]: 4.3 10^9/L
Activity [27]: Non-toxic
Activity [28]: Non-toxic
Activity [29]: Non-toxic
Activity [30]: Non-toxic
IC50 [31]: > 500 µM
LD10 [32]: > 80 mg/kg
Activity [33]: Non-toxic
IC50 [34]: 262 µM
Activity [35]: 1 10^9/L
IC50 [36]: > 500 µM
IC50 [37]: > 500 µM
Activity [38]: Active
Activity [39]: Non-toxic
Activity [40]: Non-toxic
Activity [41]: Non-toxic
Activity [42]: 3.9 10^9/L

From ChEMBL document CHEMBL1144565, “Anti-breast cancer activity of LFM-A13, a potent inhibitor of Polo-like kinase (PLK)” (Bioorg Med Chem, 2007)
